# Where no end group is shown, it is not given here.
# Tests used:
# [1] = target: T1, BaxΔC21 (Homo sapiens, UniProt Q07812, C126S/C62S); assay: Bax binding assay: SPR, BH3 peptides displacing BaxΔC from a BimBH3 chip; conditions: SPR competition, 0.5% octylglucoside
# T1 construct: made in house; host or cells: Escherichia coli BL21(DE3) or ER2566
# Method: Bax binding assays were performed using a protocol modified from that described previously.[18] […] IC50 values were calculated with GraphPad Prism (GraphPad Software, La Jolla, CA, USA).
# [2] = tested on: BaxΔC21; assay: Core/latch dimer formation of BaxΔC21 with CHAPS and BH3 peptide, analysed by SEC; assay type: biochemical; conditions: BaxΔC21 2 mg/ml, twofold molar excess of peptide, 1% CHAPS, 1 h at room temperature
# [3] = tested on: full-length Bax; assay: Liposome permeabilisation (carboxy-fluorescein release) by full-length Bax in response to BH3 peptides; assay type: biochemical; conditions: liposomes 4 μg/ml, 50 nM full-length Bax, 500 nM BH3 peptide, 1 h at RT; three independent experiments
# Method: The suspension was extruded through a 100 nm pore size membrane and then passed over a PD10 column to remove unincorporated dye. Liposomes at 4 μg/ml were incubated with 50 nM full-length Bax and 500 nM BH3 peptide in SUV buffer for 1 h at RT. Fluorescence of released self-quenching 5(6)-carboxy-fluorescein was measured with an excitation wavelength of 485 nm and emission wavelength of 535 nm.
# [4] = tested on: mitochondria isolated from Bak−/− Bax−/− mouse embryonic fibroblasts (MEFs) ectopically expressing BaxS184L; assay: Cytochrome c release from isolated mitochondria; assay type: cell-based; conditions: immunoblot of supernatant and pellet, representative of two independent experiments
# Method: To test whether this change in binding affinity influenced apoptotic activity, we assessed the ability of each peptide to induce cytochrome c release from mitochondria isolated from Bak^−/− Bax^−/− mouse embryonic fibroblasts (MEFs) ectopically expressing the mitochondrially targeted Bax variant BaxS184L.[28]
# BaxS184L was stably expressed in Bax^−/− Bak^−/− MEFs and cytochrome c release assays were performed as described for Bak.[23] Supernatant and pellet fractions were separated and analysed for cytochrome c by immunoblotting.
# T1 sequence (Q07812 1-171 C62S/C126S): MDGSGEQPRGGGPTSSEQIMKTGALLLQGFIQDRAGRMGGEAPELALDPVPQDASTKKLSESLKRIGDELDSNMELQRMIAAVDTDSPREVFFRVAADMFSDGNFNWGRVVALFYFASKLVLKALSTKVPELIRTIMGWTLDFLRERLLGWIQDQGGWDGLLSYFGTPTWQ
sequence,measurement,setting,value
SESQEDIIRNIARHLRQVGDSMDRSIPPGLVNGL [BidBH3 A91R],binding to BaxΔC21 in the SPR assay,[1],behaved similar to BimBH3
same,ability to trigger core/latch dimer formation of BaxΔC21,[2],largely unaffected
same,capacity to activate Bax in liposome permeabilisation assay,[3],enhanced activity over BidBH3
same,potency at releasing cytochrome c from mitochondria,[4],at best a marginally more effective than BidBH3

# Reference: PMC4650713, “Crystal structure of Bax bound to the BH3 peptide of Bim identifies important contacts for interaction” (Cell Death & Disease, 2015)
